Test results reported in article PMC11790949, “A multiplex method for rapidly identifying viral protease inhibitors” (Molecular Systems Biology, 2025).
Like-named read-outs stand apart in the source and are kept apart here.

How the values were obtained:
MERS-CoV-PLP = MERS-CoV-PLP (Middle East respiratory syndrome-related coronavirus, UniProt K9N7C7); format: cell-based
SARS-CoV-PLP [1] = biological target: T1, SARS-CoV-PLP (Severe acute respiratory syndrome coronavirus, UniProt P0C6X7); test: cell-based
Bat-SL-CoVZC45-PLP [2] = biological target: T2, Bat-SL-CoVZC45-PLP (Bat SARS-like coronavirus, UniProt A0A2R3SV02); format: cell-based
SARS-CoV-2-3CL [3] = biological target: T3, SARS-CoV-2-3CL (Severe acute respiratory syndrome coronavirus 2, UniProt P0DTD1); format: cell-based
Bat-SV-CoVZC45-3CL = format: cell-based, Bat SL-CoVZC45
Bat-CoV-HKU4-3CL = Bat-CoV-HKU4-3CL (Bat coronavirus HKU4, UniProt P0C6W3); format: cell-based
HCoV-NL63-3CL = HCoV-NL63-3CL (Human coronavirus NL63, UniProt P0C6X5); format: cell-based
CV-B3-3C = CV-B3-3C (Coxsackievirus B3, UniProt P03313); format: cell-based
MERS-CoV-3CL = MERS-CoV-3CL (Middle East respiratory syndrome-related coronavirus, UniProt K9N7C7); format: cell-based
BWCoV-SW1-3CL = format: cell-based, Beluga whale coronavirus SW1
SARS-CoV-3CL = SARS-CoV-3CL (Severe acute respiratory syndrome coronavirus, UniProt P0C6X7); format: cell-based
HCoV-HKU1-3CL = HCoV-HKU1-3CL (Human coronavirus HKU1, UniProt P0C6X2); format: cell-based
Bat-CoV-HKU9-3CL = Bat-CoV-HKU9-3CL (Bat coronavirus HKU9, UniProt P0C6W5); format: cell-based
SARS-CoV-2-3CL [4] = biological target: T3, SARS-CoV-2-3CL; test: cell-based
HAV-3C = HAV-3C (Human hepatitis A virus genotype IB, UniProt P08617); format: cell-based
HCoV-229E-3CL = HCoV-229E-3CL (Human coronavirus 229E, UniProt P0C6X1); format: cell-based
SARS-CoV-2 PLP [5] = biological target: T4, SARS-CoV-2 PLP (Severe acute respiratory syndrome coronavirus 2, UniProt P0DTD1); test: biochemical
SARS-CoV-2 PLP [6] = biological target: T4, SARS-CoV-2 PLP; format: biochemical
SARS-CoV-2 [7] = test: microbe, parasite or virus in culture; format: cell-based; conditions: Severe acute respiratory syndrome coronavirus 2, Huh-7, 24 h, read-out: IC50, inhibition of SARS-CoV-2 viral replication in Huh7 cells
SARS-CoV-2 [8] = test: microbe, parasite or virus in culture; format: cell-based; conditions: Severe acute respiratory syndrome coronavirus 2, 24 h, read-out: A549-C3 (ACE2/TMPRSS2) IC50, inhibition of SARS-CoV-2 viral replication
SARS-CoV-PLP [9] = biological target: T1, SARS-CoV-PLP; format: cell-based
Bat-SL-CoVZC45-PLP [10] = biological target: T2, Bat-SL-CoVZC45-PLP; format: cell-based; remark: listed apart in the source
POWV-NS2B-GS-NS3 = format: cell-based, tick-borne Powassan virus
SV-A-3C = format: cell-based, Salivirus
SARS-CoV-2 PLP [11] = biological target: T4, SARS-CoV-2 PLP; format: cell-based
SARS-CoV-2 PLP [12] = biological target: T4, SARS-CoV-2 PLP; format: cell-based; remark: listed apart in the source
HIV-2-PR = HIV-2-PR (Human immunodeficiency virus type 2 subtype A, UniProt P04584); format: cell-based
HIV-1-PR = HIV-1-PR (Human immunodeficiency virus type 1 group M subtype B, UniProt P04585); format: cell-based
SARS-CoV-2 [13] = format: cell-based
SARS-CoV-2 3CL protease = SARS-CoV-2 3CL protease (Severe acute respiratory syndrome coronavirus 2, UniProt P0DTD1); test: Biochemical inhibition of peptide cleavage by purified SARS-CoV-2 3CL protease (fluorogenic)

## Cc1cc(N(C)C)ccc1N=Nc1ccc2ncccc2c1 [NSC680516]
MERS-CoV-PLP
  magratio: 0.228

## O=C(c1ccccc1)C(c1ccccc1)(c1ccccc1)c1ccccc1 [MAVDA-B-194]
SARS-CoV-PLP [1]
  activity in the yeast assay for SARS-CoV PLP: inactive
Bat-SL-CoVZC45-PLP [2]
  activity in the yeast assay for Bat SL-CoVZC45 PLP: inactive

## CCc1cc(=O)oc2cc(OC(=O)c3ccco3)ccc12 [CB6728297]
SARS-CoV-2-3CL [3]
  magratio: 0.9863
Bat-SV-CoVZC45-3CL
  magratio: 0.6214
Bat-CoV-HKU4-3CL
  magratio: 0.5386
HCoV-NL63-3CL
  magratio: 0.2557
CV-B3-3C
  magratio: 0.2591
MERS-CoV-3CL
  magratio: 0.4038
BWCoV-SW1-3CL
  magratio: 0.3619
SARS-CoV-3CL
  magratio: 1.394
HCoV-HKU1-3CL
  magratio: 0.5819
Bat-CoV-HKU9-3CL
  magratio: 0.9832
SARS-CoV-2-3CL [4]
  EC50: 5.6 µM
HAV-3C
  magratio: 0.4338
HCoV-229E-3CL
  magratio: 0.2941

## CNCC(N)=O.Cl [MAVDA-B-195]
SARS-CoV-PLP [1]
  activity in the yeast assay for SARS-CoV PLP: inactive
Bat-SL-CoVZC45-PLP [2]
  activity in the yeast assay for Bat SL-CoVZC45 PLP: inactive

## Cc1ccc(S)cc1.[Pb] [MAVDA-B-191]
SARS-CoV-PLP [1]
  activity in the yeast assay for SARS-CoV PLP: inactive
Bat-SL-CoVZC45-PLP [2]
  activity in the yeast assay for Bat SL-CoVZC45 PLP: inactive

## CNC(=O)Oc1c(OCC2CCCCC2)ccnc1C [MAVDA-B-219]
SARS-CoV-PLP [1]
  EC50: 0.4 to 1.7 µM
SARS-CoV-2 PLP [5]
  IC50: 3.5 µM
SARS-CoV-2 PLP [6]
  trend in IC50 as a function of pre-incubation time with SARS-CoV-2 PLP: downward trend in IC50
SARS-CoV-2 [7]
  IC50: 16.3 µM
SARS-CoV-2 [8]
  IC50: 14.9 µM

## CNC(=O)Oc1c(OC)ccnc1C [MAVDA-B-116]
SARS-CoV-PLP [1]
  EC50: 0.4 to 1.7 µM
SARS-CoV-2 PLP [5]
  IC50: 18.1 µM
SARS-CoV-2 PLP [6]
  trend in IC50 as a function of pre-incubation time with SARS-CoV-2 PLP: downward trend in IC50
SARS-CoV-2 [8]
  IC50: 16.6 µM

## NC(N)=NC(=S)Nc1ccc(Cl)cc1 [NSC403374]
SARS-CoV-2-3CL [3]
  magratio: 0.7395
Bat-SV-CoVZC45-3CL
  magratio: 0.2507
SARS-CoV-3CL
  magratio: 0.3199

## CN(C(=O)c1ccncc1)c1ccccc1 [NSC204976]
MERS-CoV-3CL
  magratio: 0.3045

## Cc1cc2c(cc1C)N(C(=O)CCl)CC(=O)N2 [NSC138389]
SARS-CoV-2-3CL [3]
  magratio: 0.2809
Bat-SV-CoVZC45-3CL
  magratio: 0.2787
SARS-CoV-PLP [9]
  magratio: 0.5699
Bat-CoV-HKU4-3CL
  magratio: 0.217
BWCoV-SW1-3CL
  magratio: 0.6472
Bat-SL-CoVZC45-PLP [10]
  magratio: 0.922
HCoV-HKU1-3CL
  magratio: 0.303
LGTV-NS2B-GS-NS3
  magratio: 0.3021
POWV-NS2B-GS-NS3
  magratio: 0.5885

## O=C(Oc1cncc(Cl)c1)c1cccs1 [MAC-5576, reference compound]
SARS-CoV-2-3CL [3]
  magratio: 0.9818
Bat-SV-CoVZC45-3CL
  magratio: 1.703
Bat-CoV-HKU4-3CL
  magratio: 0.8566
HCoV-NL63-3CL
  magratio: 1.688
MERS-CoV-3CL
  magratio: 1.133
BWCoV-SW1-3CL
  magratio: 1.841
SARS-CoV-3CL
  magratio: 2.282
HCoV-HKU1-3CL
  magratio: 1.559
Bat-CoV-HKU9-3CL
  magratio: 1.805
HAV-3C
  magratio: 0.7585
HCoV-229E-3CL
  magratio: 1.36
SV-A-3C
  magratio: 1.579

## S=c1[nH]c2ccccc2n2cccc12 [NSC246415]
Bat-CoV-HKU4-3CL
  magratio: 0.2265

## CNC(=O)Oc1c(C)[nH]ccc1=O [NSC287495]
SARS-CoV-PLP [9]
  magratio: 0.9749
MERS-CoV-PLP
  magratio: 0.4201
SARS-CoV-2 PLP [11]
  response of the SARS-CoV-2 PLP yeast model: relatively weak response
Bat-SL-CoVZC45-PLP [10]
  magratio: 0.8718
SARS-CoV-PLP [1]
  EC50: 22.8 µM
SARS-CoV-2 PLP [12]
  magratio: 0.3486

## CCSc1nc(=S)cc(C)[nH]1 [NSC67307]
MERS-CoV-3CL
  magratio: 0.2279

## CCOc1ccnc(C)c1OC(=O)NC [MAVDA-B-190]
SARS-CoV-PLP [1]
  EC50: 0.4 to 1.7 µM
SARS-CoV-2 PLP [5]
  IC50: 14.2 µM
SARS-CoV-2 PLP [6]
  trend in IC50 as a function of pre-incubation time with SARS-CoV-2 PLP: downward trend in IC50
SARS-CoV-2 [8]
  IC50: > 50 µM

## CCOC(=O)C(=O)Cc1nc2ccccc2s1 [NSC38490]
MERS-CoV-3CL
  magratio: 0.2455

## N#Cc1c(N)nc(N)nc1Nc1ccc(Br)cc1 [NSC71866]
LGTV-NS2B-GS-NS3
  magratio: 0.2846
SV-A-3C
  magratio: 0.2095

## O=C(Oc1ccc2ccc(=O)oc2c1)c1cccs1 [CB6762077]
SARS-CoV-2-3CL [3]
  magratio: 0.436
Bat-SV-CoVZC45-3CL
  magratio: 0.28
Bat-CoV-HKU4-3CL
  magratio: 0.7004
HCoV-NL63-3CL
  magratio: 0.351
BWCoV-SW1-3CL
  magratio: 0.4066
SARS-CoV-3CL
  magratio: 0.6861
HCoV-HKU1-3CL
  magratio: 0.5727
Bat-CoV-HKU9-3CL
  magratio: 0.9258
SARS-CoV-2-3CL [4]
  EC50: 7.7 µM
HAV-3C
  magratio: 0.356
HCoV-229E-3CL
  magratio: 0.2867

## CCOC(=O)c1c(NC(=S)NC)sc2c1CCCC2 [NSC280492]
Bat-CoV-HKU4-3CL
  magratio: 0.288

## CNC(=O)Oc1c(OCc2ccccc2)ccnc1C [MAVDA-B-201]
SARS-CoV-PLP [1]
  EC50: 0.4 to 1.7 µM
SARS-CoV-2 PLP [5]
  IC50: 9.8 µM
SARS-CoV-2 PLP [6]
  trend in IC50 as a function of pre-incubation time with SARS-CoV-2 PLP: downward trend in IC50
SARS-CoV-2 [8]
  IC50: 41.2 µM

## Cc1cccc(C)c1OCC(=O)N[C@@H](Cc1ccccc1)[C@@H](O)C[C@H](Cc1ccccc1)NC(=O)[C@H](C(C)C)N1CCCNC1=O [Lopinavir]
HIV-2-PR
  magratio: 0.9971
HIV-1-PR
  magratio: 1.188

## N#CCS(=O)(=O)c1cccc[n+]1[O-] [NSC361056]
BWCoV-SW1-3CL
  magratio: 0.7101

## CNC(=O)Oc1c(OC(C)C)ccnc1C [MAVDA-B-217]
SARS-CoV-PLP [1]
  EC50: 0.4 to 1.7 µM
SARS-CoV-2 PLP [5]
  IC50: 5.8 µM
SARS-CoV-2 PLP [6]
  trend in IC50 as a function of pre-incubation time with SARS-CoV-2 PLP: downward trend in IC50
SARS-CoV-2 [8]
  IC50: 49.8 µM

## GRL0617 [reference compound]
SARS-CoV-2 PLP [11]
  response of the SARS-CoV-2 PLP yeast model: blunted response

## O=C(Oc1ccc2ccc(=O)oc2c1)c1ccco1 [CB6778425]
SARS-CoV-2-3CL [3]
  magratio: 0.6675
Bat-SV-CoVZC45-3CL
  magratio: 0.8357
Bat-CoV-HKU4-3CL
  magratio: 0.5241
HCoV-NL63-3CL
  magratio: 0.4867
MERS-CoV-3CL
  magratio: 0.8027
SARS-CoV-2 [13]
  activity within a live virus setting: minimal activity
BWCoV-SW1-3CL
  magratio: 0.6941
SARS-CoV-3CL
  magratio: 0.5878
HCoV-HKU1-3CL
  magratio: 0.7283
SARS-CoV-2 3CL protease; addition of substrate at 0 and 20 minutes
  shift of IC50 upon pre-incubation with SARS-CoV-2 3CL: shifts to lower IC50s
SARS-CoV-2 3CL protease; biochemical fluorogenic assay, read-out: IC50, purified SARS-CoV-2 3CL protease
  IC50: 0.062 µM
Bat-CoV-HKU9-3CL
  magratio: 0.8169
SARS-CoV-2-3CL [4]
  EC50: 0.782 µM
HAV-3C
  magratio: 0.5812
HCoV-229E-3CL
  magratio: 0.4915

## COc1cc(O)c(C(=O)/C=C/c2ccccc2)c(OC)c1 [NSC51351]
HCoV-HKU1-3CL
  magratio: 0.2725
SV-A-3C
  magratio: 0.2675
